Here are results for 3 molecules from ChEMBL document CHEMBL1147794, “Synthesis and evaluation of two 18F-labeled imidazo[1,2-a]pyridine analogues as potential agents for imaging beta-amyloid in Alzheimer's disease” (Bioorg Med Chem Lett, 2006).

Calls of active or inactive are those of the source. No cut-off for these calls is given here.

The logP is a log measure of how a compound divides between an organic and an aqueous phase. The term Ki denotes a dissociation constant, usually derived from enzyme kinetics or from competition with a known ligand.

Data set [1] can be described thus: Lipophilicity, Log P of the compound. The data set is classed as physicochemical. Conditions: octanol/water.
In data set [2] the target is Amyloid-beta precursor protein (Homo sapiens, UniProt P05067). The data set is described as follows: Displacement of [125I]IMPY from beta amyloid in human AD cortical tissue. In general terms: Displacement assays read how much labelled ligand stays bound in the presence of the test substance.
Amyloid-beta precursor protein, sequence (P05067 whole entry): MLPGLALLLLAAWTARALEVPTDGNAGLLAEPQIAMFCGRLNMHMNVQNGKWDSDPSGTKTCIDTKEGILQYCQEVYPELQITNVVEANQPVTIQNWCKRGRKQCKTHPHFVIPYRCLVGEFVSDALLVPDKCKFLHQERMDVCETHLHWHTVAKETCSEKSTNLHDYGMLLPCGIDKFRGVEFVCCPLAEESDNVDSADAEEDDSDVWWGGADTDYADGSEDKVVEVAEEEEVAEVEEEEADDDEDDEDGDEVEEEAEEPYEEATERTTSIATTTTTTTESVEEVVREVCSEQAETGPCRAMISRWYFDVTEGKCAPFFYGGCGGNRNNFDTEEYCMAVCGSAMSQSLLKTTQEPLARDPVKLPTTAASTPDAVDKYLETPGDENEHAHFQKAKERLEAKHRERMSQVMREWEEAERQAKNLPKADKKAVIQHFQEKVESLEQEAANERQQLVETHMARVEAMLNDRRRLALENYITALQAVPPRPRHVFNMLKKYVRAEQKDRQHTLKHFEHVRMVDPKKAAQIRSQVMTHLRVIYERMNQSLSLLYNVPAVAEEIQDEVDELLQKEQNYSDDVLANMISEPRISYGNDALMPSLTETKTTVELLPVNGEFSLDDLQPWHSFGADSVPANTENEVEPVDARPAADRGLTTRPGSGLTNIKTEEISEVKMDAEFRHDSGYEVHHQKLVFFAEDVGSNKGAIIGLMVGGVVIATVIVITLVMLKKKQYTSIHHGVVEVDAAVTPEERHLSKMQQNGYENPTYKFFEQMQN
For data set [3], the system named is Rhesus monkey. In words: Penetration into iv dosed rhesus monkey blood-brain barrier after 9 mins. The data set is classed as functional, organism-based. Conditions: Macaca mulatta, tested as the 18F-labelled form.
In data set [4] the test system is Rhesus monkey. In words: Uptake in iv dosed rhesus monkey skull. Conditions: Macaca mulatta; tested as the 18F-labelled form. In kind it is functional, organism-based.

`CN(C)c1ccc(-c2cn3cc(I)ccc3n2)cc1` registered a logP in data set [1] of 3.58.

Turning to `CN(C)c1ccc(-c2cn3cc(CCCF)ccc3n2)cc1`, in data set [2], the inhibition constant Ki is 48.3 nM. This molecule also yielded a log partition coefficient (logP) in data set [1] of 2.84. Further, in data set [3], the outcome was Active. Moreover, the result in data set [4] was inactive.

Consider `CN(C)c1ccc(-c2cn3cc(CCF)ccc3n2)cc1`, for which the Ki in data set [2] was determined as 177 nM. In data set [1], the logP is 2.42.
